According to patent publication US20230331767A1, “TARGETED STEROID COMPOUNDS” (priority 2020, published 2023):

Assays:
[1] = tested on: F4/80 (mouse macrophage), CD4 (T helper cell), CD8 (cytotoxic T cell), and Ly6G (neutrophil) cells; test: Thioglycollate-induced peritonitis, flow cytometry of peritoneal lavage cells; format: in vivo, BALB/C or Swiss Webster mice; details: treated group vs the untreated or vehicle, peritoneal cavity; for percentage of F4/80 macrophages: 10 nmol I.V. 48 hrs after induction stated for Compound 107
Protocol: Induced peritonitis with 1.5 mL 3% thioglycollate injected I.P. into either BALB/C or Swiss Webster mice maintained on a folate free diet for at least three weeks and treated with 10 nmol Compound 107 injected I.V. 48 hrs after induction. After an additional 48 hrs the mice were euthanized, and peritoneal lavage was performed using 2% fetal bovine serum (FBS) in phosphate buffered saline (PBS). Cells were passed through a 70 µm cell filter to remove debris then counted using a hemocytometer. Approximately 1 million cells pre-incubated in anti-CD16/32 (to block endogenous Fc receptor binding) for one hour on ice in 100 µL of 2% FBS in PBS. Then the cells incubated with at least one of the following fluorescently labeled antibodies for cell surface markers: PE-F4/80 or PE/Cy7-F4/80 (mouse macrophage), FITC-CD4 (T helper cell), eFluor780-CD8 (cytotoxic T cell), and PerCP/Cy5.5-Ly6G (neutrophil) according to the manufacturers recommended procedure on ice for 1 hour. Cells were washed twice with 1 mL of ice cold 2% FBS in PBS then suspended in 2% FBS in PBS. Controls included unstained cells as the negative control as well as the use of 1 drop of compensation beads per dye-antibody (1 µL) for a positive control incubated for 1 hour on ice and washed twice with 1 mL 2% FBS in PBS. All samples were centrifuged at 400xg for 10 min between washes, transfers and after incubation to remove supernatant.
Samples and appropriate controls were analyzed on an Attune NxT Acoustic Focusing Cytometer collecting between 10,000 and 30,000 events per sample utilizing laser lines BL1-A, BL2-A, BL3-A, and YL4-A for FITC-CD4, PE-F4/80, PerCP/Cy5.5-Ly6G and eFluor780-CD8 or PE/Cy7-F4/80, respectively. Flow cytometry data analysis involved first observing the cells run in the experiment using forward and side-scattering light (FSC and SSC, respectively). All observed cells were gated (R1) and analyzed for relative abundance of F4/80 (mouse macrophage), CD4 (T helper cell), CD8 (cytotoxic T cell), and Ly6G (neutrophil) cells within the population. Values from quadrant gating based on negative controls were then represented in bar graph form.

colon = details: 10nmols i.v. on days 3 and 4; 2.5% DSS for 6 days; treated vs untreated colon, day 6
Protocol: 8-12 week old C57BL/6 mice were maintained on a folate free diet for at least three week dextran sodium sulfate (DSS) was added to their drinking water at a final concentration of 2.5% for 6 days. […] On day 6 the mice were euthanized by CO2 affixation followed by cervical dislocation. Then the colons were excised and prepared for histology as described previously (J Vis Exp. 2012; (60): 3678.). Briefly, the colons were cut out and the fecal contents were gently removed and washed in PBS. The colons were fixed in 10% buffered formalin for 24 hrs followed by transfer to 70% ethanol. These samples were submitted to the Purdue Veterinary Pathology lab where they were embedded in paraffin, sectioned, and stained with hematoxylin and eosin.

macrophage [2] = test: Flow cytometry of thioglycolate-elicited peritoneal macrophages gated on F4/80, CD 206 expression (M2 marker); format: cell-based, ND4 mice; details: 20 nanomolar; targeted group vs competition group (plus 100-fold excess folate-glucosamine); macrophage gated on F4/80
Protocol: (§1) FIG. 6 is an example of compound 101 in flow cytometry of macrophage gated on F4/80 to show CD 206 expression (a marker for M2, anti-inflammatory macrophages). Briefly, 1.5 mL of 3% thioglycolate were injected into the intraperitoneal cavity of 12-week-old ND4 mice. Three days later the macrophages were isolated by intraperitoneal lavage and plated in a 12-well dish and incubated at 37° C./5% CO2. After 24 hours, the media was replaced with media containing 20 nanomolar the compound in FIGS. 1 or 20 nanomolar of the compound in FIG. 1 plus 100-fold excess folate-glucosamine (to show receptor-specific binding) or untreated control or 10 nanomolar free dexamethasone (to show the effect of the free drug) and allowed to incubate at 37° C./5% CO2 for the allotted time. Then 3 days later the cells were detached and incubated with the corresponding fluorescently labeled antibodies for 1 hour at 4° C. in 1% fetal bovine serum (FBS) in phosphate- buffered saline (PBS). The samples were then washed 3 times with ice-cold 1% FBS in PBS before being analyzed by flow cytometry.

macrophage [3] = test: Flow cytometry of macrophage, CD 86 expression (M1 marker); format: cell-based, ND4 mice; details: 20 nanomolar compound, with or without folate-glucosamine competition; treatment for 24 hours
Protocol: as §1, with “After 24 hours, the media was replaced with media containing 20 nanomolar the compound in FIGS.” left out, “Then 3 days later the cells were detached and incubated with the corresponding fluorescently labeled antibodies for 1 hour at 4° C. in 1% fetal bovine serum (FBS) in phosphate- buffered saline (PBS).” left out
FIG. 8 is an example of Compound 101 in flow cytometry of macrophage to show CD 86 expression with controls.

| Molecule | percentage of FITC-CD4 (T helper cell) [1] | percentage of PerCP/Cy5.5-Ly6G (neutrophil) [1] | percentage of eFluor780-CD8 (cytotoxic T cell) [1] | percentage of F4/80 macrophages [1] | crypt architecture (colon histology) (colon) | infiltrating immune cells (colon histology) (colon) | number of goblet cells (colon histology) (colon) | CD 206 expression (marker for M2, anti-inflammatory macrophages) (macrophage [2]) | CD 86 expression (marker for M1, pro-inflammatory macrophages) (macrophage [3]) |
| --- | --- | --- | --- | --- | --- | --- | --- | --- | --- |
| Folate-PEG12(CH2)-Pyrophosphate-Dexamethasone [Compound 108] | lower | lower | lower | lower | – | – | – | – | – |
| Folate-PEG2-Hydrolink-DimethylCysteine-Carbamate-Dexamethasone [Compound 106] | – | – | – | lower | – | – | – | – | – |
| Folate-AlbuminBinder-PEG2-Hydrolink-DimethylCysteine-Carbamate-Dexamethasone [Compound 107] | lower | lower | lower | lower | more crypt architecture | fewer infiltrating immune cells | higher number of goblet cells | – | – |
| C[C@H]1C[C@@H]2[C@H]3CCC4=CC(=O)C=C[C@@]4(C)[C@]3(F)[C@H](O)C[C@@]2(C)[C@]1(O)C(=O)COC(=O)NCCSSC(C)(C)C(NC(=O)c1ccc(NCc2cnc3nc(N)[nH]c(=O)c3n2)cc1)C(=O)O (some centres unmarked) [Compound 101, Folate-Hydrolink-Cysteine-Carbonate-Dexamethasone] | – | – | – | – | – | – | – | Increased expression of CD 206 in the targeted group over the competition group | no observable differences |
